In ChEMBL document CHEMBL4411295, “Discovery of novel nonsteroidal VDR agonists with novel diarylmethane skeleton for the treatment of breast cancer” (Eur J Med Chem, 2019):
Activity calls are given as the source filed them. The calls are words filed in the database; no cut-off is given here.

Experiments:
[1] = target: T1, Vitamin D3 receptor (Homo sapiens) (UniProt P11473); test: Binding affinity at VDR (unknown origin) assessed as relative VDR-probe inhibition at 1 uM by fluorescence polarization assay relative to 1,25(OH)2D3
T1 sequence (whole entry): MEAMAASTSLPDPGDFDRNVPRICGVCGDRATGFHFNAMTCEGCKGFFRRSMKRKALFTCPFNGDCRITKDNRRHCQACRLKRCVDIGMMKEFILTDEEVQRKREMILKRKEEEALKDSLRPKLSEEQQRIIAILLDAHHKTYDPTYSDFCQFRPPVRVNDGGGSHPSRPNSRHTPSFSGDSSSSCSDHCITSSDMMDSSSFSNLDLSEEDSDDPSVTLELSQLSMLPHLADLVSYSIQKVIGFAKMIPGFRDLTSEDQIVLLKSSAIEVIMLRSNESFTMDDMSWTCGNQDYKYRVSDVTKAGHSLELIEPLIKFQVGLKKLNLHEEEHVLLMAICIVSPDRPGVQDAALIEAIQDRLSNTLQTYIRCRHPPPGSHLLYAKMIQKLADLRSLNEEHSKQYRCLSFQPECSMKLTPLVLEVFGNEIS

MCF7 [2] = test: Antiproliferative activity against human MCF7 cells after 24 hrs by MTT assay; type: functional, cell-based; settings: MCF7, 24 h
MCF7 [3] = test: Induction of apoptosis in human MCF7 cells assessed as increase in Bax level at 0.5 uM after 24 hrs by Western blot analysis; type: functional, cell-based
MCF7 [4] = test: Induction of apoptosis in human MCF7 cells assessed as increase in p21 level at 0.5 uM after 24 hrs by Western blot analysis; type: functional, cell-based
MCF7 [5] = test: Induction of apoptosis in human MCF7 cells assessed as increase in Bax expression at 0.5 uM after 24 hrs by qPCR analysis; type: functional, cell-based
MCF7 [6] = test: Induction of apoptosis in human MCF7 cells assessed as reduction in Bcl2 level at 0.5 uM after 24 hrs by Western blot analysis; type: functional, cell-based
MCF7 [7] = test: Induction of apoptosis in human MCF7 cells assessed as reduction in Bcl2 expression at 0.5 uM after 24 hrs by qPCR analysis; type: functional, cell-based
MCF7 [8] = test: Induction of apoptosis in human MCF7 cells assessed as increase in p21 expression at 0.5 uM after 24 hrs by qPCR analysis; type: functional, cell-based
MCF7 [9] = test: Induction of apoptosis in human MCF7 cells at 0.5 uM after 48 hrs by Annexin V-FITC/propidium iodide staining-based flow cytometric analysis; type: functional, cell-based
L02 = test: Cytotoxicity against human LO2 cells assessed as reduction in cell viability after 24 hrs by MTT assay; type: cell-based; settings: L02, 24 h
MCF7 [10] = test: Induction of apoptosis in human MCF7 cells assessed as viable cells at 1 uM after 48 hrs by Annexin V-FITC/propidium iodide staining-based flow cytometric analysis (reference value: 94.3%); type: functional; settings: MCF7, 48 h, read-out: Activity
MCF7 [11] = test: Cell cycle arrest in human MCF7 cells assessed as accumulation at G0/G1 phase at 1 uM after 24 hrs by propidium iodide staining based flow cytometric analysis (reference value: 56.64%); type: functional
MCF7 [12] = test: Cell cycle arrest in human MCF7 cells assessed as accumulation at G2/M phase at 1 uM after 24 hrs by propidium iodide staining based flow cytometric analysis (reference value: 12.04%); type: functional
MCF7 [13] = test: Induction of apoptosis in human MCF7 cells assessed as late apoptotic cells at 1 uM after 48 hrs by Annexin V-FITC/propidium iodide staining-based flow cytometric analysis (reference value: 1.61%); type: functional
MCF7 [14] = test: Induction of apoptosis in human MCF7 cells assessed as necrotic cells at 1 uM after 48 hrs by Annexin V-FITC/propidium iodide staining-based flow cytometric analysis (reference value: 0.29%); type: functional
MCF7 [15] = test: Induction of apoptosis in human MCF7 cells assessed as early apoptotic cells at 1 uM after 48 hrs by Annexin V-FITC/propidium iodide staining-based flow cytometric analysis (reference value: 3.80%); type: functional
MCF7 [16] = test: Cell cycle arrest in human MCF7 cells assessed as accumulation at S phase at 1 uM after 24 hrs by propidium iodide staining based flow cytometric analysis (reference value: 31.32%); type: functional
Mus musculus = test: Hypercalcemic effect in BALB/C nude mouse xenografted with human MCF7 cells at 0.5 ug/kg, ip administered 3 times per week measured after 15 days; type: ADME, organism-based; settings: in vivo, 0.0005 mg/kg, 360 h
MCF7 [17] = test: Antitumor activity against human MCF7 cells xenografted in BALB/C nude mouse assessed as reduction in tumor volume at 0.5 ug/kg, ip administered 3 times per week; type: functional, organism-based

Structure (SMILES) | inhibition [1] [%] | Activity (MCF7 [3]) | Activity (MCF7 [4]) | Activity (MCF7 [5]) | Activity (MCF7 [6]) | Activity (MCF7 [7]) | Activity (MCF7 [8]) | also measured
CCN(CC)CCNC(=O)c1cc(C(CC)(CC)c2ccc(C#CC3(O)CCCCC3)c(C)c2)cn1CC | 44.2 | – | – | – | – | – | – | IC50 (MCF7 [2]): 3.07 µM
CCCC(O)(C#Cc1ccc(C(CC)(CC)c2cc(C(=O)NCCN(CC)CC)n(CC)c2)cc1C)CCC | 51.1 | Active | Active | Active | Active | Active | Active | –
CCN(CC)CCNC(=O)c1ccc(C(CC)(CC)c2ccc(C#CC(C)(C)O)c(C)c2)n1CC | 60.2 | Active | Active | Active | Active | Active | Active | –
CCN(CC)CCNC(=O)c1ccc(C(CC)(CC)c2ccc(C#CC(C)(O)CC)c(C)c2)n1CC (configuration not stated) | 63.4 | Active | Active | Active | Active | Active | Active | Activity (MCF7 [9]): Active
CCN(CC)CCNC(=O)c1cc(C(CC)(CC)c2ccc(C#CC3(O)CCC3)c(C)c2)cn1CC | 49.3 | Active | Active | Active | Active | Active | Active | IC50 (MCF7 [2]): 1.28 µM; IC50 (L02): > 50 µM
C=C1/C(=C\C=C2/CCC[C@]3(C)[C@@H]([C@H](C)/C=C/[C@@H](O)C4CC4)CC[C@@H]23)C[C@@H](O)C[C@@H]1O [CALCIPOTRIENE] | – | – | – | – | – | – | – | viability at 1 µM (MCF7 [10]): 80.8%; Activity (MCF7 [11]): 63%; Activity (MCF7 [12]): 12.55%; Activity (MCF7 [13]): 3.77%; Activity (MCF7 [14]): 0.31%; Activity (MCF7 [15]): 15.1%; Activity (MCF7 [16]): 24.45%
C=C1/C(=C\C=C2/CCC[C@]3(C)[C@@H]([C@H](C)CCCC(C)(C)O)CC[C@@H]23)C[C@@H](O)C[C@@H]1O [CALCITRIOL] | – | – | – | – | – | – | – | Activity (Mus musculus): Toxic; viability at 1 µM (MCF7 [10]): 81.8%; Activity (MCF7 [11]): 70.33%; Activity (MCF7 [17]): inactive; Activity (MCF7 [12]): 4.11%; Activity (MCF7 [13]): 3.88%; Activity (MCF7 [14]): 0.4%; Activity (MCF7 [15]): 14%; Activity (MCF7 [16]): 25.56%
CCCC(O)(C#Cc1ccc(C(CC)(CC)c2ccc(C(=O)NCCN(CC)CC)n2CC)cc1C)CCC | 52.1 | – | – | – | – | – | – | –
CCN(CC)CCNC(=O)c1cc(C(CC)(CC)c2ccc(C#CC(C)(O)CC)c(C)c2)cn1CC (configuration not stated) | 59.2 | – | – | – | – | – | – | –
CCN(CC)CCNC(=O)c1cc(C(CC)(CC)c2ccc(C#CC(C)(C)O)c(C)c2)cn1CC | 56.3 | – | – | – | – | – | – | –
